Measurements taken from ChEMBL document CHEMBL5038625, “Application of the dual-tail approach for the design and synthesis of novel Thiopyrimidine-Benzenesulfonamide hybrids as selective carbonic anhydrase inhibitors” (Eur J Med Chem, 2022).

Experiments:
HCT-15 = test: Antiproliferative activity against human HCT-15 cells assessed as cell growth inhibition at 10 uM incubated for 24 hrs by sulforhodamine B assay; assay type: functional; settings: read-out: GI
PC-3 = test: Antiproliferative activity against human PC-3 cells assessed as cell growth inhibition at 10 uM incubated for 24 hrs by sulforhodamine B assay; assay type: functional; settings: read-out: GI
A498 = test: Antiproliferative activity against human A498 cells assessed as cell growth inhibition at 10 uM incubated for 24 hrs by sulforhodamine B assay; assay type: functional; settings: read-out: GI
OVCAR-4 = test: Antiproliferative activity against human OVCAR-4 cells assessed as cell growth inhibition at 10 uM incubated for 24 hrs by sulforhodamine B assay; assay type: functional; settings: read-out: GI
NCI/ADR-RES = test: Antiproliferative activity against human NCI-ADR-RES cells assessed as cell growth inhibition at 10 uM incubated for 24 hrs by sulforhodamine B assay; assay type: functional; settings: read-out: GI
SK-MEL-5 = test: Antiproliferative activity against human SK-MEL-5 cells assessed as cell growth inhibition at 10 uM incubated for 24 hrs by sulforhodamine B assay; assay type: functional; settings: read-out: GI
UO-31 = test: Antiproliferative activity against human UO-31 cells assessed as cell growth inhibition at 10 uM incubated for 24 hrs by sulforhodamine B assay; assay type: functional; settings: read-out: GI
SF-539 = test: Antiproliferative activity against human SF-539 cells assessed as cell growth inhibition at 10 uM incubated for 24 hrs by sulforhodamine B assay; assay type: functional; settings: read-out: GI
CCRF-CEM = test: Antiproliferative activity against human CCRF-CEM cells assessed as cell growth inhibition at 10 uM incubated for 24 hrs by sulforhodamine B assay; assay type: functional; settings: read-out: GI
U-251 = test: Antiproliferative activity against human U-251 cells assessed as cell growth inhibition at 10 uM incubated for 24 hrs by sulforhodamine B assay; assay type: functional; settings: read-out: GI
Carbonic anhydrase 9 = Carbonic anhydrase 9 (Homo sapiens, UniProt Q16790); test: Inhibition of human CA9 preincubated for 15 mins by phenol red dye based stopped flow CO2 hydration assay
OVCAR-8 = test: Antiproliferative activity against human OVCAR-8 cells assessed as cell growth inhibition at 10 uM incubated for 24 hrs by sulforhodamine B assay; assay type: functional; settings: read-out: GI
HOP-92 = test: Antiproliferative activity against human HOP-92 cells assessed as cell growth inhibition at 10 uM incubated for 24 hrs by sulforhodamine B assay; assay type: functional; settings: read-out: GI
CAKI-1 = test: Antiproliferative activity against human CAKI-1 cells assessed as cell growth inhibition at 10 uM incubated for 24 hrs by sulforhodamine B assay; assay type: functional; settings: read-out: GI
HL-60 = test: Antiproliferative activity against human HL-60 cells assessed as cell growth inhibition at 10 uM incubated for 24 hrs by sulforhodamine B assay; assay type: functional; settings: read-out: GI
MCF7 = test: Antiproliferative activity against human MCF7 cells assessed as cell growth inhibition at 10 uM incubated for 24 hrs by sulforhodamine B assay; assay type: functional; settings: read-out: GI
T47D = test: Antiproliferative activity against human T47D cells assessed as cell growth inhibition at 10 uM incubated for 24 hrs by sulforhodamine B assay; assay type: functional; settings: read-out: GI
K562 = test: Antiproliferative activity against human K562 cells assessed as cell growth inhibition at 10 uM incubated for 24 hrs by sulforhodamine B assay; assay type: functional; settings: read-out: GI
RXF 393 = test: Antiproliferative activity against human RXF 393 cells assessed as cell growth inhibition at 10 uM incubated for 24 hrs by sulforhodamine B assay; assay type: functional; settings: read-out: GI
SF-295 = test: Antiproliferative activity against human SF-295 cells assessed as cell growth inhibition at 10 uM incubated for 24 hrs by sulforhodamine B assay; assay type: functional; settings: read-out: GI
SN12C = test: Antiproliferative activity against human SN12C cells assessed as cell growth inhibition at 10 uM incubated for 24 hrs by sulforhodamine B assay; assay type: functional; settings: read-out: GI
EKVX = test: Antiproliferative activity against human EKVX cells assessed as cell growth inhibition at 10 uM incubated for 24 hrs by sulforhodamine B assay; assay type: functional; settings: read-out: GI
MDA-MB-231 = test: Antiproliferative activity against human MDA-MB-231 cells assessed as cell growth inhibition at 10 uM incubated for 24 hrs by sulforhodamine B assay; assay type: functional; settings: read-out: GI
A549 = test: Antiproliferative activity against human A549 cells assessed as cell growth inhibition at 10 uM incubated for 24 hrs by sulforhodamine B assay; assay type: functional; settings: read-out: GI
MOLT-4 = test: Antiproliferative activity against human MOLT-4 cells assessed as cell growth inhibition at 10 uM incubated for 24 hrs by sulforhodamine B assay; assay type: functional; settings: read-out: GI
RPMI-8226 = test: Antiproliferative activity against human RPMI-8226 cells assessed as cell growth inhibition at 10 uM incubated for 24 hrs by sulforhodamine B assay; assay type: functional; settings: read-out: GI
HCT-116 = test: Antiproliferative activity against human HCT-116 cells assessed as cell growth inhibition at 10 uM incubated for 24 hrs by sulforhodamine B assay; assay type: functional; settings: read-out: GI
SR = test: Antiproliferative activity against human SR cells assessed as cell growth inhibition at 10 uM incubated for 24 hrs by sulforhodamine B assay; assay type: functional; settings: read-out: GI
NCI-H226 = test: Antiproliferative activity against human NCI-H226 cells assessed as cell growth inhibition at 10 uM incubated for 24 hrs by sulforhodamine B assay; assay type: functional; settings: read-out: GI
NCI-H23 = test: Antiproliferative activity against human NCI-H23 cells assessed as cell growth inhibition at 10 uM incubated for 24 hrs by sulforhodamine B assay; assay type: functional; settings: read-out: GI
OVCAR-3 = test: Antiproliferative activity against human OVCAR-3 cells assessed as cell growth inhibition at 10 uM incubated for 24 hrs by sulforhodamine B assay; assay type: functional; settings: read-out: GI
UACC-62 = test: Antiproliferative activity against human UACC-62 cells assessed as cell growth inhibition at 10 uM incubated for 24 hrs by sulforhodamine B assay; assay type: functional; settings: read-out: GI
786-0 = test: Antiproliferative activity against human 786-0 cells assessed as cell growth inhibition at 10 uM incubated for 24 hrs by sulforhodamine B assay; assay type: functional; settings: read-out: GI
Hs-578T = test: Antiproliferative activity against human HS-578T cells assessed as cell growth inhibition at 10 uM incubated for 24 hrs by sulforhodamine B assay; assay type: functional; settings: read-out: GI
LOX IMVI = test: Antiproliferative activity against human LOX IMVI cells assessed as cell growth inhibition at 10 uM incubated for 24 hrs by sulforhodamine B assay; assay type: functional; settings: read-out: GI
KM12 = test: Antiproliferative activity against human KM12 cells assessed as cell growth inhibition at 10 uM incubated for 24 hrs by sulforhodamine B assay; assay type: functional; settings: read-out: GI
ACHN = test: Antiproliferative activity against human ACHN cells assessed as cell growth inhibition at 10 uM incubated for 24 hrs by sulforhodamine B assay; assay type: functional; settings: read-out: GI
MDA-MB-468 = test: Antiproliferative activity against human MDA-MB-468 cells assessed as cell growth inhibition at 10 uM incubated for 24 hrs by sulforhodamine B assay; assay type: functional; settings: read-out: GI
SF-268 = test: Antiproliferative activity against human SF-268 cells assessed as cell growth inhibition at 10 uM incubated for 24 hrs by sulforhodamine B assay; assay type: functional; settings: read-out: GI

Structure (SMILES)	inhibition of growth at 10 µM (HCT-15) [%]	inhibition of growth at 10 µM (PC-3) [%]	inhibition of growth at 10 µM (A498) [%]	inhibition of growth at 10 µM (OVCAR-4) [%]	inhibition of growth at 10 µM (UO-31) [%]	inhibition of growth at 10 µM (SF-539) [%]	inhibition of growth at 10 µM (U-251) [%]	Ki (Carbonic anhydrase 9) [nM]	inhibition of growth at 10 µM (HOP-92) [%]	inhibition of growth at 10 µM (CAKI-1) [%]	inhibition of growth at 10 µM (MCF7) [%]	inhibition of growth at 10 µM (T47D) [%]	inhibition of growth at 10 µM (K562) [%]	inhibition of growth at 10 µM (RXF 393) [%]	inhibition of growth at 10 µM (EKVX) [%]	inhibition of growth at 10 µM (MDA-MB-231) [%]	inhibition of growth at 10 µM (MOLT-4) [%]	inhibition of growth at 10 µM (RPMI-8226) [%]	inhibition of growth at 10 µM (SR) [%]	inhibition of growth at 10 µM (NCI-H226) [%]	other results
CC(C)c1nc(SCC(=O)c2ccccc2)nc(Nc2cccc(S(N)(=O)=O)c2)c1C#N	12.1	27.3	10.7	9.85	27.4	12.2	5.45	92.3	61	10.8	12.6	17.9	26.7	17.3	5.72	14.9	28.2	17.9	19	10	inhibition of growth at 10 µM (NCI/ADR-RES): 5.69%; inhibition of growth at 10 µM (SK-MEL-5): 7.01%; inhibition of growth at 10 µM (CCRF-CEM): 13.8%; inhibition of growth at 10 µM (OVCAR-8): 5%; inhibition of growth at 10 µM (HL-60): 25.2%; inhibition of growth at 10 µM (SF-295): 5.43%; inhibition of growth at 10 µM (SN12C): 8.21%; inhibition of growth at 10 µM (A549): 5.5%; inhibition of growth at 10 µM (HCT-116): 5.73%
CC(C)c1nc(SCC(=O)c2ccc(Br)cc2)nc(Nc2cccc(S(N)(=O)=O)c2)c1C#N	–	–	–	–	20.9	5.74	–	97.4	15	12.7	12.4	–	–	8.85	–	–	–	–	–	6.88	inhibition of growth at 10 µM (NCI-H23): 5.54%; inhibition of growth at 10 µM (OVCAR-3): 6.91%; inhibition of growth at 10 µM (UACC-62): 8.44%
COc1ccc(C(=O)CSc2nc(Nc3cccc(S(N)(=O)=O)c3)c(C#N)c(-c3cc(OC)ccc3OC)n2)cc1	10.6	8.57	23.9	7.16	29.2	11.2	9.1	7	–	29.2	11.8	15.2	10.7	11.7	6.35	5.72	18.2	12.6	12.7	–	inhibition of growth at 10 µM (786-0): 7.02%; inhibition of growth at 10 µM (Hs-578T): 10.4%; inhibition of growth at 10 µM (LOX IMVI): 11.3%; inhibition of growth at 10 µM (KM12): 5.79%; inhibition of growth at 10 µM (ACHN): 5.69%; inhibition of growth at 10 µM (MDA-MB-468): 8.93%; inhibition of growth at 10 µM (SF-268): 5.3%
